According to patent US11225505B2, “Antimicrobial polymyxin derivative compounds” (MONASH UNIVERSITY, priority 2015, dated 2022):
Converted amounts (≈) assume the structure as drawn. Where a SMILES comes first, the peptide text is derived from it. Bridges are numbered along the chain shown (N, C = ends). [ ]: non-standard residue; d: D form. The star is where a group is joined. X57 = O=C(c1nc2cc(Cl)ccc2[nH]1)*; X16 = O=C(c1cnc(-c2ccccc2)nc1)*; X22 = Cn1c(C(=O)*)cc2ccccc21; X38 = O=C(c1cc2sccc2[nH]1)*; X1 = O=C(c1ncc(Cl)cc1Cl)*; X65 = O=C(c1cc(Br)ccn1)*; Dab = NCC[C@H](N)C(=O)O; Abu = CC[C@H](N)C(=O)O; Dap = NC[C@H](N)C(=O)O

How the values were obtained:
Type in all cases: cell-based
[1] = tested on: Acinetobacter baumannii FADDI-AB030; experiment: microbe, parasite or virus in culture; conditions: FADDI-AB030
How it was run: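 Broth microdilution MIC in cation-adjusted Mueller-Hinton broth per CLSI M100-S24; lipopeptides tested as TFA salts. FADDI-AB030 is a multidrug-resistant clinical isolate. Polymyxin B sulphate served as control.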

[2] = tested on: Klebsiella pneumoniae FADDI-KP032; conditions: FADDI-KP032
How it was run: (§1)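 Standard CLSI (M100-S24) microdilution in cation-adjusted broth gives the MIC for each strain. Test compounds are TFA-salt lipopeptides; the comparator is polymyxin B sulphate.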

[3] = tested on: Enterobacter cloacae FADDI-EC001; conditions: FADDI-EC001
How it was run: (§2)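 Following CLSI procedure M100-S24, minimum inhibitory concentrations of trifluoroacetate lipopeptides are measured in cation-adjusted Mueller-Hinton medium by broth microdilution, alongside a polymyxin B sulphate control.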

[4] = tested on: Pseudomonas aeruginosa ATCC 27853; conditions: ATCC 27853
How it was run: as §1

[5] = tested on: Klebsiella pneumoniae FADDI-KP022; conditions: FADDI-KP022
How it was run: as §1

[6] = tested on: Enterobacter cloacae FADDI-EC003; conditions: FADDI-EC003
How it was run: as §1

[7] = tested on: Acinetobacter baumannii ATCC 17978; conditions: ATCC 17978
How it was run: as §1

[8] = tested on: Pseudomonas aeruginosa FADDI-PA022; conditions: FADDI-PA022
How it was run: as §1

[9] = tested on: Klebsiella pneumoniae Kp BM1; conditions: Kp BM1
How it was run: as §2

[10] = tested on: Pseudomonas aeruginosa FADDI-PA038; conditions: FADDI-PA038
How it was run: as §1

[11] = tested on: Enterobacter cloacae FADDI-EC006; conditions: FADDI-EC006
How it was run: as §1

[12] = tested on: Acinetobacter baumannii FADDI-AB034; conditions: FADDI-AB034
How it was run: as §1

[13] = tested on: Pseudomonas aeruginosa FADDI-PA01; conditions: FADDI-
How it was run: as §1

Row | Structure (SMILES) | Minimum inhibitory concentration [1] | Minimum inhibitory concentration [2] | Minimum inhibitory concentration [3] | Minimum inhibitory concentration [4] | Minimum inhibitory concentration [5] | Minimum inhibitory concentration [6] | Minimum inhibitory concentration [7] | Minimum inhibitory concentration [8] | Minimum inhibitory concentration [9] | Minimum inhibitory concentration [10] | Minimum inhibitory concentration [11] | Minimum inhibitory concentration [12] | Minimum inhibitory concentration [13]
1 | CC[C@@H]1NC(=O)[C@@H](CC(C)C)NC(=O)[C@H](CCN)NC(=O)[C@@H](NC(=O)[C@H](CN)NC(=O)[C@@H](NC(=O)[C@H](CCN)NC(=O)c2cc3sccc3[nH]2)[C@@H](C)O)CCNC(=O)[C@H]([C@@H](C)O)NC(=O)[C@H](CCN)NC(=O)[C@H](CCN)NC1=O [Compound 90] (X38-[Dab]T[Dap][Dab][Dab][dL][Abu][Dab][Dab]T; lactam 4-C) | 0.5 mg/L (≈ 0.44 µM) | 0.25 mg/L (≈ 0.22 µM) | <0.125 mg/L | 0.5 mg/L (≈ 0.44 µM) | <0.125 mg/L | <0.125 mg/L | 2 mg/L (≈ 1.76 µM) | 0.5 mg/L (≈ 0.44 µM) | 0.25 mg/L (≈ 0.22 µM) | 0.5 mg/L (≈ 0.44 µM) | 0.5 mg/L (≈ 0.44 µM) | 1 mg/L (≈ 0.88 µM) | 0.25 mg/L (≈ 0.22 µM)
2 | CC[C@@H]1NC(=O)[C@@H](CC(C)C)NC(=O)[C@H](CCN)NC(=O)[C@@H](NC(=O)[C@H](CN)NC(=O)[C@@H](NC(=O)[C@H](CCN)NC(=O)c2cc(Br)ccn2)[C@@H](C)O)CCNC(=O)[C@H]([C@@H](C)O)NC(=O)[C@H](CCN)NC(=O)[C@H](CCN)NC1=O [Compound 102] (X65-[Dab]T[Dap][Dab][Dab][dL][Abu][Dab][Dab]T; lactam 4-C) | 0.25 mg/L (≈ 0.213 µM) | 0.25 mg/L (≈ 0.213 µM) | <0.125 mg/L | 0.5 mg/L (≈ 0.427 µM) | <0.125 mg/L | <0.125 mg/L | 0.5 mg/L (≈ 0.427 µM) | 0.5 mg/L (≈ 0.427 µM) | <0.125 mg/L | 1 mg/L (≈ 0.854 µM) | <0.125 mg/L | 0.5 mg/L (≈ 0.427 µM) | 0.5 mg/L (≈ 0.427 µM)
3 | CC[C@@H]1NC(=O)[C@@H](CC(C)C)NC(=O)[C@H](CCN)NC(=O)[C@@H](NC(=O)[C@H](CN)NC(=O)[C@@H](NC(=O)[C@H](CCN)NC(=O)c2nc3cc(Cl)ccc3[nH]2)[C@@H](C)O)CCNC(=O)[C@H]([C@@H](C)O)NC(=O)[C@H](CCN)NC(=O)[C@H](CCN)NC1=O [Compound 71] (X57-[Dab]T[Dap][Dab][Dab][dL][Abu][Dab][Dab]T; lactam 4-C) | 0.25 mg/L (≈ 0.214 µM) | <0.125 mg/L | 0.25 mg/L (≈ 0.214 µM) | 0.5 mg/L (≈ 0.429 µM) | <0.125 mg/L | <0.125 mg/L | 0.5 mg/L (≈ 0.429 µM) | 0.5 mg/L (≈ 0.429 µM) | <0.125 mg/L | 2 mg/L (≈ 1.72 µM) | <0.125 mg/L | 0.5 mg/L (≈ 0.429 µM) | 0.25 mg/L (≈ 0.214 µM)
4 | CC[C@@H]1NC(=O)[C@@H](CC(C)C)NC(=O)[C@H](CCN)NC(=O)[C@@H](NC(=O)[C@H](CN)NC(=O)[C@@H](NC(=O)[C@H](CCN)NC(=O)c2cnc(-c3ccccc3)nc2)[C@@H](C)O)CCNC(=O)[C@H]([C@@H](C)O)NC(=O)[C@H](CCN)NC(=O)[C@H](CCN)NC1=O [Compound 73] (X16-[Dab]T[Dap][Dab][Dab][dL][Abu][Dab][Dab]T; lactam 4-C) | 0.5 mg/L (≈ 0.428 µM) | <0.125 mg/L | <0.125 mg/L | 0.5 mg/L (≈ 0.428 µM) | <0.125 mg/L | 0.5 mg/L (≈ 0.428 µM) | 0.5 mg/L (≈ 0.428 µM) | 0.5 mg/L (≈ 0.428 µM) | <0.125 mg/L | 2 mg/L (≈ 1.71 µM) | 1 mg/L (≈ 0.855 µM) | 0.5 mg/L (≈ 0.428 µM) | 0.5 mg/L (≈ 0.428 µM)
5 | C[C@@H](O)[C@@H]1NC(=O)[C@H](CCN)NC(=O)[C@H](CCN)NC(=O)[C@H]([C@@H](C)O)NC(=O)[C@@H](Cc2ccccc2)NC(=O)[C@H](CCN)NC(=O)[C@@H](NC(=O)[C@H](CN)NC(=O)[C@@H](NC(=O)[C@H](CCN)NC(=O)c2ncc(Cl)cc2Cl)[C@@H](C)O)CCNC1=O [Compound 11] (X1-[Dab]T[Dap][Dab][Dab][dF]T[Dab][Dab]T; lactam 4-C) | 2 mg/L (≈ 1.65 µM) | <0.125 mg/L | <0.125 mg/L | 0.25 mg/L (≈ 0.206 µM) | <0.125 mg/L | <0.125 mg/L | 1 mg/L (≈ 0.826 µM) | 0.25 mg/L (≈ 0.206 µM) | 1 mg/L (≈ 0.826 µM) | 1 mg/L (≈ 0.826 µM) | <0.125 mg/L | 1 mg/L (≈ 0.826 µM) | 0.5 mg/L (≈ 0.413 µM)
6 | CC(C)C[C@H]1NC(=O)[C@H](CCN)NC(=O)[C@@H](NC(=O)[C@H](CN)NC(=O)[C@@H](NC(=O)[C@H](CCN)NC(=O)c2ncc(Cl)cc2Cl)[C@@H](C)O)CCNC(=O)[C@H]([C@@H](C)O)NC(=O)[C@H](CCN)NC(=O)[C@H](CCN)NC(=O)[C@H](C(C)C)NC1=O [Compound 13] (X1-[Dab]T[Dap][Dab][Dab][dL]V[Dab][Dab]T; lactam 4-C) | 0.5 mg/L (≈ 0.425 µM) | 0.25 mg/L (≈ 0.213 µM) | <0.125 mg/L | 0.5 mg/L (≈ 0.425 µM) | 0.25 mg/L (≈ 0.213 µM) | <0.125 mg/L | 1 mg/L (≈ 0.851 µM) | 0.5 mg/L (≈ 0.425 µM) | 0.25 mg/L (≈ 0.213 µM) | 1 mg/L (≈ 0.851 µM) | <0.125 mg/L | 2 mg/L (≈ 1.7 µM) | 0.5 mg/L (≈ 0.425 µM)
7 | CC(C)C[C@H]1NC(=O)[C@H](CCN)NC(=O)[C@@H](NC(=O)[C@H](CN)NC(=O)[C@@H](NC(=O)[C@H](CCN)NC(=O)c2cc3ccccc3n2C)[C@@H](C)O)CCNC(=O)[C@H]([C@@H](C)O)NC(=O)[C@H](CCN)NC(=O)[C@H](CCN)NC(=O)[C@H]([C@@H](C)O)NC1=O [Compound 64] (X22-[Dab]T[Dap][Dab][Dab][dL]T[Dab][Dab]T; lactam 4-C) | 1 mg/L (≈ 0.862 µM) | 0.5 mg/L (≈ 0.431 µM) | 1 mg/L (≈ 0.862 µM) | 0.5 mg/L (≈ 0.431 µM) | 0.25 mg/L (≈ 0.215 µM) | 1 mg/L (≈ 0.862 µM) | 2 mg/L (≈ 1.72 µM) | 0.25 mg/L (≈ 0.215 µM) | 0.5 mg/L (≈ 0.431 µM) | 1 mg/L (≈ 0.862 µM) | 2 mg/L (≈ 1.72 µM) | 1 mg/L (≈ 0.862 µM) | 0.5 mg/L (≈ 0.431 µM)
